Organism: Rattus norvegicus
Assay: Effective concentration for calcium mobilization (Ca 2+ release) in rat brain microsomes
Assay type: functional

EC50 | SMILES
9.2 µM | N=c1c2ncn3c2ncn1[C@@H]1O[C@H](COP(=O)(O)OP(=O)(O)OC[C@H]2O[C@@H]3[C@H](OP(=O)(O)O)[C@@H]2O)[C@@H](O)[C@H]1O
22 µM | N=c1c2ncn3c2ncn1[C@@H]1O[C@H](COP(=O)(O)OP(=O)(O)OC[C@H]2OC3[C@H](O)[C@@H]2O)[C@@H](O)[C@H]1O
0.1 µM | O=P(O)(O)O[C@@H]1[C@H](O)[C@H](O)[C@@H](OP(=O)(O)O)[C@H](OP(=O)(O)O)[C@H]1O [INS(1,4,5)P3]

Reference: ChEMBL document CHEMBL1128894, “Enzymatic cyclization of nicotinamide adenine dinucleotide phosphate (NADP)” (Bioorg Med Chem Lett, 1995)
